Assay: Animal Experiment 2: whole cholesterol in hypercholesterolemia rats (Zurkowski's method)
Assay type: in vivo, rats of Wistar descent
Conditions: male Wistar rats on cholesterol feed, five days; composite oral 75 μg monoiodohistidine/day/rat, contrast groups equal iodine amount; control group 335
Description: A test groups consisted of ten heads of male rats of Wistar descent, which weighed about 120 g. The test group was fed in a cage at 24±1° C. of temperature and at 50 to 60% of humidity. […] The composite to be tested was made from the yolk of egg of the egg-laying hens to which calcium iodate was fed. The composite was dissolved in distilled water, and then orally dosed to the rats by means of a stomach probe at the rate of 75 μg of monoiodohistidine per day per rat for five days in parallel with feeding of the cholesterol containing feed. The rats were caused to fast for a night after composite dosing was finished, and next morning blood was taken from fundus of the rat's eyes in order to measure the amount of whole cholesterol by Zurkowski's method.
A control group, a contrast group (1) and a contrast group (2) equally consisted of rats which got hypercholesterolemia by the same process as mentioned in the test group. While potassium iodide was dosed to the contrast group (1) so that the iodine amount would be equal to that of the test group, iodo-lecithin was dosed to the contrast group (2) so that the iodine amount would be equal to that of the test group. On the other hand, no iodine agent or compound was dosed to the control group. And, as to the rats of these groups, the amount of whole cholesterol was measured by the same method as mentioned in the test group.

Compound | Amount of whole Cholesterol [mg/dL]
[I-].[K+] [potassium iodide] | 323
iodo-lecithin | 325
